The values that follow come from patent US5914348A, “Substance FA-70D, process for producing the same, and uses thereof” (Taiho Pharmaceutical Co., Ltd., priority 1996, dated 1999).

The target in data set [1] is cathepsin B (Homo sapiens, UniProt P07858). Kind of data set: Inhibitory activity against cathepsin B (fluorescence, carbobenzoxy-L-phenylalanyl-L-arginine-4-methylcoumaryl-7-amide substrate). It counts as biochemical. To be noted: pH 6.0, 40° C., read-out: Enzyme inhibitory activity (%). On the procedure:
(§1) The inhibitory activity against cathepsin L or cathepsin B was assayed by the method of A. J. Barrett et al. [Biochemical Journal, 201, 189-198, 1982]. The chymotrypsin- or trypsin-hibitory activity was assayed in accordance with the methods described in Tsuru, D. and Funatsu, M. (ed.), Seikagaku Jikkenho-Tanpakushitsu Bunkai Koso II [Methods of Biochemistry, Proteolytic Enzymes II], vol. 31, 7-14, 1993.
(§2) The method for assay of inhibitory activity against cathepsin B is as follows. Thus, 0.5 ml of 400 mM sodium phosphate buffer (pH 6.0) containing 8 mM dithiothreitol and 4 mM tetrasodium ethylenediaminetetracetate, 0.8 ml of an enzyme solution containing 5 μM cathepsin B and 0.1% Brij 35 (Wako Pure Chemical Ind.), and 0.2 ml of an aqueous solution of the compound of the invention were preincubated at 40° C. for 10 minutes. […] The intensity of fluorescence (F) was determined at an exciting wavelength of 350 nm and an emission wavelength of 458 nm. As a control, 0.2 ml of water was added in lieu of 0.2 ml of said aqueous solution of the compound of the invention and the intensity of fluorescence (F0) at 458 nm was similarly measured. The enzyme inhibitory activity was calculated by means of the following formula. […]

Data set [2] has as its system cathepsin series proteases. Description: Inhibition of cathepsin series proteases. The class given is biochemical. On the procedure: as §1, §2
For data set [3], the target named is T1, trypsin (Bos taurus, UniProt P00760).
T1 sequence (P00760 24-246): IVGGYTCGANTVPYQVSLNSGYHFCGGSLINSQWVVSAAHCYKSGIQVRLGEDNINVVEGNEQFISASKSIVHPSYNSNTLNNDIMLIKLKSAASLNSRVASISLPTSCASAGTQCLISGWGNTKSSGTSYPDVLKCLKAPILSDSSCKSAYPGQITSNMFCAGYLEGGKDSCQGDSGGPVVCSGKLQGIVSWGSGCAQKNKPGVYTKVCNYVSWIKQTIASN
Kind of data set: Inhibitory activity against trypsin (fluorescence, benzoyl-L-leucyl-L-lysyl-arginine-4-methylcoumaryl-7-amide substrate). The class given is biochemical. As to conditions: pH 7.5, 37° C., read-out: Enzyme inhibitory activity (%). On the procedure:
as §1
(§3) The inhibitory activity against chymotrypsin was assayed in the following manner. Thus, 0.1 ml of 100 mM Tris-HCl buffer (pH 7.5), 0.15 ml of water, 0.01 ml of 5 ng/ml chymotrypsin/water, and 0.04 ml of an aqueous solution of the compound of the invention were preincubated at 37° C. for 5 minutes. Then, 0.1 ml of an aqueous solution containing 100 μM succinyl-L-leucyl-L-leucyl-L-valyl-L-tyrosine-4-methylcoumaryl-7-amide was added and the mixture was incubated at 37° C. for 20 minutes. The enzymatic reaction was stopped by adding 0.5 ml of 100 mM sodium acetate buffer (pH 4.3) containing 100 mM sodium monochloroacetate and the intensity of fluorescence (F) was measured at an exciting wavelength of 350 nm and an emission wavelength of 458 nm. As a control, 0.04 ml of water was added in lieu of 0.04 ml of said aqueous solution of the compound of the invention and the intensity of fluorescence (F0) at 458 nm was similarly measured. The enzyme inhibitory activity was calculated by the following formula.
(§4) Enzyme inhibitory activity (%)=F/F0 ×100
The inhibitory activity against trypsin was measured as follows. Except that trypsin was used in lieu of chymotrypsin at the same concentration and benzoyl-L-leucyl-L-lysyl-arginine-4-methylcoumaryl-7-amide was used in lieu of succinyl-L-leucyl-L-leucyl-L-valyl-L-tyrosine-4-methylcoumaryl-7-amide at the same concentration, the above procedure for assaying the inhibitory activity against chymotrypsin was otherwise repeated and the enzyme inhibitory activity was calculated in the same manner as above.

Data set [4] can be described thus: Solubility. It counts as physicochemical.
In data set [5] the target is T2, papain (Carica papaya, UniProt P00784).
T2 sequence (P00784 134-345): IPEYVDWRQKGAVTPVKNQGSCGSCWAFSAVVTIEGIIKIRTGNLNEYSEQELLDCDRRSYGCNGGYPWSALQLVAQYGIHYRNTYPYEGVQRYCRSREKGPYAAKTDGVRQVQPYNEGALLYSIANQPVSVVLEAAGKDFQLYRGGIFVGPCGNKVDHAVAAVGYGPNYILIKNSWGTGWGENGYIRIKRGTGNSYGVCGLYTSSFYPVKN
Description: Assay of papain inhibitory activity. The class given is biochemical. To be noted: used for identification during purification. On the procedure:
Detection of active fractions containing Substance FA-70D in each stage was carried out by the assay of papain inhibitory activity (Biochemical Journal, 201, 189-198, 1982).
Thus, 0.5 ml of 400 mM sodium phosphate buffer (pH 6.8) containing 8 mM dithiothreitol and 4 mM tetrasodium ethylenediaminetetracetate, 0.8 ml of an enzyme solution containing 5 μM papain and 0.1% Brij 35 (polyoxyethylene (23) lauryl ether) (Wako Pure Chemical Ind.), and 0.2 ml of an aqueous solution containing a sample were preincubated at 40° C. for 10 minutes. Then, 0.5 ml of a 0.1% aqueous solution of dimethyl sulfoxide containing 20 μM carbobenzoxy-L-phenylalanyl-L-arginine-4-methylcoumaryl-7-amide was added and the mixture was incubated at 40° C. for 10 minutes. The enzymatic reaction was stopped by adding 2.0 ml of 100 mM sodium acetate buffer (pH 4.3) containing 100 mM sodium monochloroacetate and the intensity of fluorescence (F) was measured at an exciting wavelength of 350 nm and an emission wavelength of 458 nm. As a control, 0.2 ml of water was added in lieu of 0.2 ml of said aqueous solution of the sample and the intensity of fluorescence (F0) at 458 nm was similarly measured. The enzyme inhibitory activity was calculated by means of the following formula.
as §4

Data set [6] has as its target chymotrypsin (Bos taurus, UniProt P00766). Kind of data set: Inhibitory activity against chymotrypsin (fluorescence, succinyl-L-leucyl-L-leucyl-L-valyl-L-tyrosine-4-methylcoumaryl-7-amide substrate). It counts as biochemical. As to the method: as §1, §3, §4
The target of data set [7] is cathepsin L (Homo sapiens, UniProt P07711). Description: Inhibitory activity against cathepsin L (fluorescence, carbobenzoxy-L-phenylalanyl-L-arginine-4-methylcoumaryl-7-amide substrate). It counts as biochemical. On the procedure:
as §1
The method for assay of inhibitory activity against cathepsin B is as follows. Thus, 0.5 ml of 400 mM sodium phosphate buffer (pH 6.0) containing 8 mM dithiothreitol and 4 mM tetrasodium ethylenediaminetetracetate, 0.8 ml of an enzyme solution containing 5 μM cathepsin B and 0.1% Brij 35 (Wako Pure Chemical Ind.), and 0.2 ml of an aqueous solution of the compound of the invention were preincubated at 40° C. for 10 minutes. Then, 0.5 ml of a 0.1% aqueous solution of dimethyl sulfoxide containing 20 μM carbobenzoxy-L-phenylalanyl-L-arginine-4-methylcoumaryl-7-amide was added and the mixture was incubated at 40° C. for 10 minutes. The enzymatic reaction was then stopped by adding 2.0 ml of 100 mM sodium acetate buffer (pH 4.3) containing 100 mM sodium monochloroacetate. The intensity of fluorescence (F) was determined at an exciting wavelength of 350 nm and an emission wavelength of 458 nm. As a control, 0.2 ml of water was added in lieu of 0.2 ml of said aqueous solution of the compound of the invention and the intensity of fluorescence (F0) at 458 nm was similarly measured. The enzyme inhibitory activity was calculated by means of the following formula.
as §4
The inhibitory activity against cathepsin L was assayed as follows. Thus, except that cathepsin L was used in lieu of cathepsin B at the same concentration and the 400 mM sodium phosphate buffer was adjusted to pH 5.5, the above assay procedure for cathepsin B was otherwise repeated to determine the enzyme inhibitory activity.

Numbered stars: 1 amine (or outer) side, 2 acyl side, 3 side chain; on linkers, the order of the positions; unused ones are H or OH. Square brackets hold non-standard residues; d marks the D form. Peptide text beside a SMILES is read from it. Cit = NC(=O)NCCC[CH](N)C(=O)O; Phe(ol) = N[CH](CO)Cc1ccccc1; CO = O=C([*:1])[*:2]

cathepsin L, sequence (P07711 114-333, species assumed): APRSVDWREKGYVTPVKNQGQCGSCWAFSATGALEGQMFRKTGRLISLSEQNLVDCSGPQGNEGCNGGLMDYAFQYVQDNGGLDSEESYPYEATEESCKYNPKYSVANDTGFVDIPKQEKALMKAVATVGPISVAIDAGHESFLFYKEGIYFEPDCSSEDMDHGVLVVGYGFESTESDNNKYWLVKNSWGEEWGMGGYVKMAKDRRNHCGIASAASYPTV

With `CC(C)C(NC(=O)C(CCCNC(N)=O)NC(=O)NC(Cc1ccccc1)C(=O)O)C(=O)NC(CO)Cc1ccccc1` (stereo not drawn) [Substance FA-70D] ({Phe-CO}-[Cit]-Val-[Phe(ol)]; configuration not given here), the inhibition at 1 µM in data set [1] (FA-70D 10^-6 M) was determined as 85.5%; in data set [3] (FA-70D 10^-6 M) it was 43.3%; in data set [6] (chymotrypsin, FA-70D 10^-6 M, pH 7.5, 37° C., read-out: Enzyme inhibitory activity (%)), 99.9%; in data set [7] (cathepsin L, FA-70D 10^-6 M, pH 5.5, 40° C., read-out: Enzyme inhibitory activity (%)), 93.5%. Also, the inhibition at 0.1 µM in data set [1] (FA-70D 10^-7 M) came to 23.7%; in data set [3] (FA-70D 10^-7 M), 14%; in data set [6] (chymotrypsin, FA-70D 10^-7 M, pH 7.5, 37° C., read-out: Enzyme inhibitory activity (%)), 97.6%; in data set [7] (cathepsin L, FA-70D 10^-7 M, pH 5.5, 40° C., read-out: Enzyme inhibitory activity (%)), 72%. In addition, in data set [2], the “inhibit cathepsin series proteases” value was “strongly inhibit”. Besides, the inhibition at 0.01 µM is 9.4% in data set [3] (FA-70D 10^-8 M); 70.7% in data set [6] (chymotrypsin, FA-70D 10^-8 M, pH 7.5, 37° C., read-out: Enzyme inhibitory activity (%)); 15.1% in data set [7] (cathepsin L, FA-70D 10^-8 M, pH 5.5, 40° C., read-out: Enzyme inhibitory activity (%)). Also, the Solubility result in data set [4] (in chloroform, acetone, ethyl acetate, ether, and hexane) is recorded as “Practically insoluble”; in data set [4] (in ethanol), “slightly soluble”; in data set [4] (in methanol and dimethylsulfoxide) it was “readily soluble”. The “enzymatic activity of papain inhibited by the substance” value in data set [5] was “inhibited by the substance”. The “inhibits chymotrypsin more strongly than trypsin” value in data set [6] (chymotrypsin vs trypsin, Test Example 1) is listed as “inhibits chymotrypsin more strongly than trypsin”. Further, the “inhibits cathepsin L more strongly than cathepsin B” value in data set [7] (cathepsin L vs cathepsin B, Test Example 1) was “inhibits cathepsin L more strongly than cathepsin B”.
